Results published in patent EP1258532A1, “Thermostable D-hydantoinase from Bacillus circulans and the application thereof” (NATIONAL SCIENCE COUNCIL, priority 2001, dated 2002).

Tests used:
[1] = test system: D-hydantoinase; assay: Effects of metal ions on D-hydantoinase activity; format: biochemical, Bacillus circulans; conditions: ion 500 µM; for Specific activity: 15 min at room temperature, substrate 10 mM D,L-p-HPH in 50 mM Tris-HCl (pH 8.0); for Relative activity: activity percentage based on that without adding ions
Description: Various divalent metal ions (as set forth in Table 1 below) were added to the vector pQE-bcidht in E. coli NovaBlue, crude extracts thereof or the purified D-hydantoinase of the present invention at 500 µM concentration. After 15 minutes of incubation at room temperature, 10 mM substrate of D,L-p-HPH (dissolved in 50 mM Tris-HCl (pH 8.0)) was added. The specific activity of the enzyme was then measured.

[2] = test system: D-hydantoinase; assay: Effects of H2O2, NaCl and NH4Cl on D-hydantoinase activity; format: biochemical, Bacillus circulans; conditions: in the presence of 0.8 M H2O2; 25°C for 10 min, residual H2O2 removed with catalase; 800000 µM
Description: The vector pQE-bcidht in E. coli NovaBlue, crude extracts thereof or the purified D-hydantoinase of the present invention was incubated at 25°C for 10 min. Afterwards, the catalase was added to the solution to remove residual H2O2, and then the enzyme activity was measured. In addition, various concentrations of NaCl and NH4Cl were added to the solution containing D-hydantoinase. The solution was incubated at room temperature for 10 min, and the enzyme activity was measured.

Row | Substance | Specific activity [1] | Relative activity [1] | inhibition of D-hydantoinase activity ([1]; substrate 10 mM D,L-p-HPH) | Relative activity ([1]; 15 min) | retained enzyme activity [2]
1 | NiSO4 | 4.00 unit/mg | 139% |  |  | 
2 | ZnSO4 | 1.44 unit/mg | 50% | 50% |  | 
3 | FeSO2 | 2.52 unit/mg |  |  | 87.5% | 
4 | H2O2 |  |  |  |  | 85%
5 | MgSO4 | 2.69 unit/mg | 94% |  |  | 
